Test results reported in publication PMC7243119, “Improved Surface Display of Human Hyal1 and Identification of Testosterone Propionate and Chicoric Acid as New Inhibitors” (Pharmaceuticals, 2020).

Assays:
[1] = target: T1, Hyal1 (Homo sapiens, UniProt Q12794); assay: Stains-all HA degradation assay with surface-displayed Hyal1 on E. coli cells, pH […] (incomplete curve; assay impaired beyond […]); assay type: cell-based
T1 sequence (Q12794 22-435): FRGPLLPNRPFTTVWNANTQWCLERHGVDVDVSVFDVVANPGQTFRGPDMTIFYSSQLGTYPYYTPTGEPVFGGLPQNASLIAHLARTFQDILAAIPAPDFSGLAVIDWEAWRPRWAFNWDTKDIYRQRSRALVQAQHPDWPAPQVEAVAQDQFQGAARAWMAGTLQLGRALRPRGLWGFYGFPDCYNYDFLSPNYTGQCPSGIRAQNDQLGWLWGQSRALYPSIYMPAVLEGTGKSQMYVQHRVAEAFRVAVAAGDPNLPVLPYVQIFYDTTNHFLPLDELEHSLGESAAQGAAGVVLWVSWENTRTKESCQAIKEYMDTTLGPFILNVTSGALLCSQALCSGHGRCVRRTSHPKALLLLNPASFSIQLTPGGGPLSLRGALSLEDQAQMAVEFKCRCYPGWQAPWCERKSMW

[2] = target: T1, Hyal1; assay: Stains-all HA degradation assay with surface-displayed Hyal1 on E. coli cells, pH […]; assay type: cell-based

| SMILES | IC50 [1] | IC50 [2] |
| --- | --- | --- |
| O=C(/C=C/c1ccc(O)c(O)c1)O[C@@H](C(=O)O)[C@@H](OC(=O)/C=C/c1ccc(O)c(O)c1)C(=O)O [chicoric acid] | 171 µM | – |
| CCC(=O)O[C@H]1CC[C@H]2[C@@H]3CCC4=CC(=O)CC[C@]4(C)[C@H]3CC[C@]12C [testosterone propionate] | – | 124 ± 1.1 µM |
